According to US20250230154A1, “COMPOUND HAVING SHP2 PROTEIN DEGRADING ACTIVITY, AND MEDICAL USES THEREOF” (UBIX THERAPEUTICS, INC., priority 2021, published 2025):

Target: T1, SHP2 protein (Homo sapiens, UniProt Q06124)
T1 sequence (Q06124 1-593): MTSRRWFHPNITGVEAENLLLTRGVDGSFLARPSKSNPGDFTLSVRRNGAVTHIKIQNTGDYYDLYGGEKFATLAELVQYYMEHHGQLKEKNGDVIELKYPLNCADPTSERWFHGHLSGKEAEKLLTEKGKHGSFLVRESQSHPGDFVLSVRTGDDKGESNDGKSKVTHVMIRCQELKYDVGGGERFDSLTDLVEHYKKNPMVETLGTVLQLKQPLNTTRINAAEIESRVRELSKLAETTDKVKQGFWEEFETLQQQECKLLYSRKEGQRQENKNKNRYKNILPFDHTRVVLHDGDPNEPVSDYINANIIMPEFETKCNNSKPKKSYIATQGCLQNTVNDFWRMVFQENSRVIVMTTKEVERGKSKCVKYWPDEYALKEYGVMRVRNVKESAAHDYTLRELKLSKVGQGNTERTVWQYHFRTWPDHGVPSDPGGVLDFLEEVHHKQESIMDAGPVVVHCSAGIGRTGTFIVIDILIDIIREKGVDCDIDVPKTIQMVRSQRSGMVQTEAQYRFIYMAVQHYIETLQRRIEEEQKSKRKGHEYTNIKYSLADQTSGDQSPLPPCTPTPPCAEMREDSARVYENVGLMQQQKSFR
Experiment: Measurement of SHP2 protein degradation in KYSE-520 cells (western blotting)
Type: cell-based
Parameters: endogenous in cells
Settings: 24 hours
Experimental: Experimental Example 1: Measurement of SHP2 Protein Degradation in KYSE-520 Cells
KYSE-520 cells were treated with the synthesized Example compound, and the amount of SHP2 protein present in the cells was measured using western blotting detection. The protocol of the experiment conducted using KYSE-520 cells was as follows:
[Culture] KYSE-520 cells resuspended in RPMI1640 MEDIUM (Hyclone, SH30027.01) containing 5% FBS (Hyclone, SV30207.02) and 1% Penicillin-streptomycin (Welgene, LS 202-02) were seeded at a density of 2.5×10^5/well in a 6-well plate in an amount of 2 ml each and incubated for 2 days.
[Compound treatment] […] After 24 hours, cells were harvested. For the negative control group, DMSO diluted 1/10 to the media (3 mL DMSO+27 mL media) was added.
[Cell Lysis and Protein Quantification] Lysis buffer was prepared as follows: […] of RIPA buffer (Biosesang, RC2038-050-00)+0.5 mM PMSF (SIGMA, P7626)+1× Protease/Phosphatase Inhibitor (Cell signaling, 5872S) per well was added and placed on ice for 30 minutes (vortexing at 0 and 30 minutes, respectively). After sonication process (10 seconds pulse, 30 seconds rest, 5 cycles, 70% amplification), centrifugation (15000 g, 15 min, 4° C.) was performed, and then only the supernatant was taken and transferred to a new microtube. The sample was diluted ¼ with RIPA buffer in a 96-well plate, and mixed with A:B=50:1 of the BCA Protein Assay Kit (iNtRON, 21071). […] each of the mixture was left at 37° C. for 30 minutes, and cooled for 10 minutes. Then, absorbance was measured at 562 nm with the SYNERGY H1 microplate reader from BioTek. After making a sample by quantifying the protein with the measured value, boiling was performed at 70° C. for 10 minutes. At this time, the sample buffer used was a mixture of NuPAGE or Bolt 4× sample buffer (Invitrogen) and each 10× sample reducing agent according to the gel to be used, and RIPA buffer was used for protein dilution.
[Western blotting detection method] The same amount of sample was loaded on NuPAGE or Bolt Bis-tris 4-12% gradient gel and run (200 V, 35 minutes). It was transferred to 0.2 mm NC membrane with Trans-blot Turbo (BIO-RAD) (1.3 A constant, 25 V limit, 15 minutes). Blocking was performed at room temperature for 1 hour with Skim milk or Intercept Blocking Buffer (LI-COR, 927-60001):0.1% TBST=1:1. Anti SHPTP2 Mouse (1:500 in 5% Skim milk/TBST, size: 70 kDa, Santacruz sc-7384) was incubated overnight at 4° C., and Anti GAPDH Rabbit (1:2,000 in 5% BSA/0.2% TBST, size: 37 kDa, CST #2118) was incubated at room temperature for 1 hour 30 minutes or 3 hours. It was washed 3 times for 5 minutes each with 0.2% TBST washing buffer. Secondary antibody Anti-Rabbit IgG (1:5,000 in 5% Skim milk/0.2% TBST, CST), and IRDye® 680RD Goat anti-Rabbit IgG Secondary Antibody (1:10,000 in 5% BSA/0.2% TBST, LI-COR 926-68071) were incubated for 45 minutes on a rocker at room temperature. It was washed 5 times for 5 minutes each with 0.2% TBST washing buffer and detected with LI-COR's Odyssey. At this time, SHPTP2 was detected using SuperSignal West Pico PLUS Chemiluminescent Substrate, and house-keeping genes were also detected.
In the results of Table 4 below, Compounds 1-7, 13-19, and 21-26 are results in KYSE-520 cells, and the others are results in MV-4-11 cells.

Cc1ncsc1-c1ccc(CNC(=O)[C@@H]2C[C@@H](O)CN2C(=O)[C@@H](NC(=O)C2(F)CC2)C(C)(C)C)c(OCCN2CCC(CCC(=O)Nc3cccc(Sc4cnc(N5CCC(C)(CN)CC5)cn4)c3Cl)CC2)c1 [Example 13, (2S,4R)—N-(2-(2-(4-(3-((3-((5-(4-(aminomethyl)-4-methylpiperidin-1-yl)pyrazin-2-yl)thio)-2-chlorophenyl)amino)-3-oxopropyl)piperidin-1-yl)ethoxy)-4-(4-methylthiazol-5-yl)benzyl)-1-((S)-2-(1-fluorocyclopropane-1-carboxamido)-3,3-dimethylbutanoyl)-4-hydroxypyrrolidine-2-carboxamide]
SHP2 degradation (%) 10 nM: −6.1% | SHP2 degradation (%) 100 nM: 49.6% | SHP2 degradation (%) 1000 nM: 69.2%

Cc1ncsc1-c1ccc(CNC(=O)[C@@H]2C[C@@H](O)CN2C(=O)[C@@H](NC(=O)C2(F)CC2)C(C)(C)C)c(OCCCCN2CCC(CCCC(=O)Nc3cccc(Sc4cnc(N5CCC(C)(CN)CC5)cn4)c3Cl)CC2)c1 [Example 17, (2S,4R)—N-(2-(4-(4-(4-((3-((5-(4-(aminomethyl)-4-methylpiperidin-1-yl)pyrazin-2-yl)thio)-2-chlorophenyl)amino)-4-oxobutyl)piperidin-1-yl)butoxy)-4-(4-methylthiazol-5-yl)benzyl)-1-((S)-2-(1-fluorocyclopropane-1-carboxamido)-3,3-dimethylbutanoyl)-4-hydroxypyrrolidine-2-carboxamide]
SHP2 degradation (%) 100 nM: 71.8% | SHP2 degradation (%) 1000 nM: 94.9%

Cc1ncsc1-c1ccc(CNC(=O)[C@@H]2C[C@@H](O)CN2C(=O)[C@@H](NC(=O)C2(F)CC2)C(C)(C)C)c(OCCN2CCC(CCCC(=O)Nc3cccc(Sc4cnc(N5CCC(C)(CN)CC5)cn4)c3Cl)CC2)c1 [Example 16, (2S,4R)—N-(2-(2-(4-(4-((3-((5-(4-(aminomethyl)-4-methylpiperidin-1-yl)pyrazin-2-yl)thio)-2-chlorophenyl)amino)-4-oxobutyl)piperidin-1-yl)ethoxy)-4-(4-methylthiazol-5-yl)benzyl)-1-((S)-2-(1-fluorocyclopropane-1-carboxamido)-3,3-dimethylbutanoyl)-4-hydroxypyrrolidine-2-carboxamide]
SHP2 degradation (%) 10 nM: −24.3% | SHP2 degradation (%) 100 nM: 45.1% | SHP2 degradation (%) 1000 nM: 84.0%

Cc1ncsc1-c1ccc(CNC(=O)[C@@H]2C[C@@H](O)CN2C(=O)[C@@H](NC(=O)C2(F)CC2)C(C)(C)C)c(OCCCC(=O)N2CCC(CCCC(=O)Nc3cccc(Sc4cnc(N5CCC(C)(CN)CC5)cn4)c3Cl)CC2)c1 [Example 25, (2S,4R)—N-(2-(4-(4-(4-((3-((5-(4-(aminomethyl)-4-methylpiperidin-1-yl)pyrazin-2-yl)thio)-2-chlorophenyl)amino)-4-oxobutyl)piperidin-1-yl)-4-oxobutoxy)-4-(4-methylthiazol-5-yl)benzyl)-1-((S)-2-(1-fluorocyclopropane-1-carboxamido)-3,3-dimethylbutanoyl)-4-hydroxypyrrolidine-2-carboxamide]
SHP2 degradation (%) 100 nM: 61.8% | SHP2 degradation (%) 1000 nM: 94.7%

Cc1ncsc1-c1ccc(CNC(=O)[C@@H]2C[C@@H](O)CN2C(=O)[C@@H](NC(=O)C2(F)CC2)C(C)(C)C)c(OCCCN2CCC(C(=O)Nc3cccc(Sc4cnc(N5CCC(C)(CN)CC5)cn4)c3Cl)CC2)c1 [Example 1, N-(3-((5-(4-(aminomethyl)-4-methylpiperidin-1-yl)pyrazin-2-yl)thio)-2-chlorophenyl)-1-(3-(2-(((2S,4R)-1-((S)-2-(1-fluorocyclopropane-1-carboxamido)-3,3-dimethylbutanoyl)-4-hydroxypyrrolidine-2-carboxamido)methyl)-5-(4-methylthiazol-5-yl)phenoxy)propyl)piperidine-4-carboxamide]
SHP2 degradation (%) 10 nM: 28.9% | SHP2 degradation (%) 100 nM: 64.5% | SHP2 degradation (%) 1000 nM: 74.5%
